In one test the target is T1, BRD4 (Homo sapiens, UniProt O60885).
T1 construct: endogenous in cells; host or cells: OPM2 myeloma cell line
In words: Western blot of BRD4 protein level in OPM2. Type of test: cell-based. Conditions: ARV-771 0.5 nM or 1 nM + rapamycin 20 nM, 24 hours. As for the experimental part:
(§1) The protein levels were analyzed using Western blot.
Different concentrations of ARV-771 (0, 0.5, 1 nM) and a fixed concentration of rapamycin (20 nM) were added to the myeloma cell line OPM2.

Test [1] deals with DEPDC5 knockout OPM2 cells. In words: Cell viability (CellTiter-Lumi) of DEPDC5 knockout OPM2 under immunomodulatory drugs. Format: cell-based, human. The conditions noted are these: DEPDC5-KO OPM2; drug gradients starting from 1 μM; 5 days. On the procedure: (§2) • (1) OPM2 cells in the logarithmic growth phase were seeded in a 96-well plate at 3000 cells/well. The volume of the cell suspension is 90 μl/well. • (2) Each well was added with 10 μl lenalidomide (Len), pomalidomide (Pom), CC-122, or CC-220 down the concentration gradients starting from 1 μM. Control groups with no drug treatment were set. Each drug had 7 gradients with 3 replicates. • (3) The plate was placed in a humidity-controlled environment (37° C., 5% CO2) for 5 days. • (4) Subsequently, 50 μl of CTL solution was added to each well under dark conditions. Then, the plate was placed on a shaker and shaken for 10 minutes, followed by reading on a microplate reader. • (5) The average absorbance values of the 3 replicates were used to plot the cell viability curves of OPM2 under drug treatment.
(§3) Cell viability was measured using the CellTiter-Lumi luminescent cell viability assay kit (Beyotime), with luminescence intensity reflecting cell viability, through an ATP-catalyzed luciferase reaction in the cell culture medium.

The test system of the next test is OPM2. Description: Cell viability, pomalidomide combined with rapamycin, OPM2. Format: cell-based, human. The conditions noted are these: OPM2 (pomalidomide-sensitive); viability at 0, 48, 96, 120 h; P<0.001. As for the experimental part:
(§4) • (1) OPM2 cells in the logarithmic growth phase were seeded in a 96-well plate at 3000 cells/well. The volume of the cell suspension is 90 μl/well. • (2) Each well was added with 10 μl lenalidomide (Len), pomalidomide (Pom), CC-122, or CC-220 down the concentration gradients starting from 1 μM. Control groups with no drug treatment were set. […] Then, the plate was placed on a shaker and shaken for 10 minutes, followed by reading on a microplate reader. • (5) The average absorbance values of the 3 replicates were used to plot the cell viability curves of OPM2 under drug treatment.
as §3
(§5) In this embodiment, the pomalidomide-sensitive myeloma cell lines (MM1S, H929 and OPM2) and the pomalidomide-resistant myeloma cell lines (U266 and RPMI-8226) were treated with mTOR signaling pathway inhibitor rapamycin alone, pomalidomide alone, a combination of rapamycin and pomalidomide, and control, respectively. Cell viability was assessed on Oh, 48 h, 96 h and 120 h post drug treatment. The detection used on each day is the same and has been described in Embodiment 1.

A further test deals with IKZF1 (Homo sapiens, UniProt Q13422+Q96SW2). As for the experimental part: 25 nM of pomalidomide and varying concentrations of rapamycin were added to myeloma cell lines OPM2, RPMI-8226, and U266, respectively. Cell pellets were collected after 24 h and were lysed using RIPA. The protein levels were analyzed using Western blot.
Chain of IKZF1 (Q16531 whole entry): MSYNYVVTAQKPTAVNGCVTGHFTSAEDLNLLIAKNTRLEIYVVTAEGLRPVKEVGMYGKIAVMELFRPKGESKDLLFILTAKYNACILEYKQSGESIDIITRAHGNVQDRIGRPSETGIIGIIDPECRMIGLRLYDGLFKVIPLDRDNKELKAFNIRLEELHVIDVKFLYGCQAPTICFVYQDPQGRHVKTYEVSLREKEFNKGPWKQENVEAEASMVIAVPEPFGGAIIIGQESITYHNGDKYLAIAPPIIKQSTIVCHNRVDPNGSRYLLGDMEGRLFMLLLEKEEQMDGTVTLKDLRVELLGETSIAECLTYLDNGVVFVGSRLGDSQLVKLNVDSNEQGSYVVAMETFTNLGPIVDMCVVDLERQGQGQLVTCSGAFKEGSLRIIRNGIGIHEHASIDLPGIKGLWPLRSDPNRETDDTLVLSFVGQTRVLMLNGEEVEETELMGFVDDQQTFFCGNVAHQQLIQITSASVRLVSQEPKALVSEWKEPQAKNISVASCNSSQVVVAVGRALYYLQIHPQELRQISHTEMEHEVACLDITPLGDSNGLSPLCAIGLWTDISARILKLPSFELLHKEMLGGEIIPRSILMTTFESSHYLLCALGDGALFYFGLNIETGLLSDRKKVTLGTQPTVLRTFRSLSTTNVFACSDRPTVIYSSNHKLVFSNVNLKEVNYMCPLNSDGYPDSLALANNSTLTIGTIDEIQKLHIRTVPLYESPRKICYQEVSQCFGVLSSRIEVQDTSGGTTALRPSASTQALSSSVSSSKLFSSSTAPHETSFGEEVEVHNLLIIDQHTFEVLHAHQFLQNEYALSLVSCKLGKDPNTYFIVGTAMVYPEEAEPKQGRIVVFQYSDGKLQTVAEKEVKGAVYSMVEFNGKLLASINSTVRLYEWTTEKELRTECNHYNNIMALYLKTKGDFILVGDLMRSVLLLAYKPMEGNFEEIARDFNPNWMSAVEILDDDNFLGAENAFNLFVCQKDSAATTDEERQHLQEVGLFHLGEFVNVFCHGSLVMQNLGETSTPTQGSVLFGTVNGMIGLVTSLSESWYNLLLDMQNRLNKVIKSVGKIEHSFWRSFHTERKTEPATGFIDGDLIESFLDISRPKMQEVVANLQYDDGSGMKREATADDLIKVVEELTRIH
Chain of IKZF1 (Q96SW2 whole entry): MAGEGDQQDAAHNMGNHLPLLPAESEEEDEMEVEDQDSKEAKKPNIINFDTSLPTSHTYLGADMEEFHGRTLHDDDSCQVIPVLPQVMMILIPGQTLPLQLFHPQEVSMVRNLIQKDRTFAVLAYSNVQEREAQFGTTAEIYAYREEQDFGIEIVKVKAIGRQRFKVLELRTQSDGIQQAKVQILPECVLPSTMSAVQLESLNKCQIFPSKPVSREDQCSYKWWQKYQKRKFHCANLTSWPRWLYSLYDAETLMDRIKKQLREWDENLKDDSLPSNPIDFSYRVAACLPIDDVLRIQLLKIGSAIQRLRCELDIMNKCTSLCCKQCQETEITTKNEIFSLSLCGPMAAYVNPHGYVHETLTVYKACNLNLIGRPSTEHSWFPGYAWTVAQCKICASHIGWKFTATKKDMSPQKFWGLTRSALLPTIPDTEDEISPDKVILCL
Chain of IKZF1 (Q13422 whole entry): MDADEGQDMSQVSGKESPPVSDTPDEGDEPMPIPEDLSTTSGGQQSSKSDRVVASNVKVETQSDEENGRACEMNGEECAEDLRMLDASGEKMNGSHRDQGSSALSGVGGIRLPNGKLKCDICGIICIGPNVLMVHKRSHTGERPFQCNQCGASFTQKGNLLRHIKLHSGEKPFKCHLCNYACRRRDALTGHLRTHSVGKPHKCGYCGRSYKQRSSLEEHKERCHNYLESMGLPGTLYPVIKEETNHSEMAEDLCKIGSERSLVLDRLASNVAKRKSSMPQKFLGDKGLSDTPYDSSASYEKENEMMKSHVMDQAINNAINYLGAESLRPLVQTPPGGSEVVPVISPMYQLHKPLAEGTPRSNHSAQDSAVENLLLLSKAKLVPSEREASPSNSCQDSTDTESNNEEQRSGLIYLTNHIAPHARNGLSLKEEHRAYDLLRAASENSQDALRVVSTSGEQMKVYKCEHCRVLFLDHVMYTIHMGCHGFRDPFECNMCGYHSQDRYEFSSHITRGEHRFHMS
Different concentrations of ZNL-02-096 (0, 1, 10, 10^2, 10^3 nM) and a fixed concentration of pomalidomide (25 nM) were added to the myeloma cell line OPM2. After 24 hours, protein levels were detected using the same method as in Embodiment 3.

The target of test [2] is T2, IKZF3 (Homo sapiens, UniProt Q96SW2+Q9UKT9).
T2 construct: Cell pellets were collected after 24 h and were lysed using RIPA; The protein levels were analyzed using Western blot; endogenous in cells; host or cells: OPM2, RPMI-8226, U266 myeloma cell lines
T2 sequence (Q9UKT9 whole entry): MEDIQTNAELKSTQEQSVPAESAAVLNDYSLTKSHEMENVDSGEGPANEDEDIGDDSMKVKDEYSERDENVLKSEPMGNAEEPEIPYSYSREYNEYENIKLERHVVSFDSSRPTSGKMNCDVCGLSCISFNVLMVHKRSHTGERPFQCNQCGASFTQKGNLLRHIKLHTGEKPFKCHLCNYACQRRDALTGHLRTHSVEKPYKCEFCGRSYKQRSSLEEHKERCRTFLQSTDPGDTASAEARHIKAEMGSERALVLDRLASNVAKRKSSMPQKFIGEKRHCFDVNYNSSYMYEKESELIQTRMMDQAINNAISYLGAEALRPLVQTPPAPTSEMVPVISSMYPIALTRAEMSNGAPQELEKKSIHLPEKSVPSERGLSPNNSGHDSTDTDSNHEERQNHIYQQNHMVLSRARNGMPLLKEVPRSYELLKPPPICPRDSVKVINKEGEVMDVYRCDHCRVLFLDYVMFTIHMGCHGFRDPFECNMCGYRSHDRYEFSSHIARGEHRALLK
T2 sequence (Q96SW2 whole entry): as the sequence (Q96SW2 whole entry) above
T2 sequence (Q16531 whole entry partner): as the sequence (Q16531 whole entry) above
In words: Western blot of IKZF3 in pomalidomide-resistant OPM2-P5000 and OPM2 cells. Type of test: cell-based. Conditions: pomalidomide-resistant myeloma cell line (OPM2-P5000; FIG. 7b OPM2); rapamycin 20 nM. On the procedure: as §1
In this embodiment, the myeloma cell line OPM2, which is sensitive to pomalidomide was subjected to long-term high-dose pomalidomide treatment to obtain the pomalidomide-resistant cell line OPM2-P5000. Pomalidomide and CC-92480 (0.5 nM, 25 nM) were administered to OPM2 cells, and pomalidomide and CC-92480 (0.5 nM, 3 μM) were administered to OPM2-P5000 cells. These treatments were combined with a fixed concentration of rapamycin (20 nM).

The test system of another test is MM1S. In words: Cell viability, pomalidomide combined with rapamycin, MM1S. Conditions: MM1S (pomalidomide-sensitive); viability at 0, 48, 96, 120 h; P<0.001. Type of test: cell-based, human. On the procedure: as §4, §3, §5
The target of test [3] is T2, IKZF3. Description: Western blot of IKZF3 protein level in myeloma cell lines. Format: cell-based.
A further test has as its system RPMI-8226. In words: Cell viability, pomalidomide combined with rapamycin, RPMI-8226. The conditions noted are these: RPMI-8226 (pomalidomide-resistant); viability at 0, 48, 96, 120 h; P<0.001. Format: cell-based, human. As for the experimental part: as §4, §3, §5
Another test deals with U266. Description: Cell viability, pomalidomide combined with rapamycin, U266. Type of test: cell-based, human. The conditions noted are these: U266 (pomalidomide-resistant); viability at 0, 48, 96, 120 h; P<0.001. On the procedure: as §4, §3, §5
In another test the test system is H929. Description: Cell viability, pomalidomide combined with rapamycin, H929. Format: cell-based, human. Conditions: H929 (pomalidomide-sensitive); viability at 0, 48, 96, 120 h; P<0.001. As for the experimental part:
as §4, §3, §5

The target in test [4] is T3, GSPT1 (Homo sapiens, UniProt P15170+Q96SW2). Description: Western blot of GSPT1 protein level in pancreatic cancer cell line KP4. Type of test: cell-based. More on the design: endogenous in cells; host or cells: KP4 pancreatic cancer cell line. The conditions noted are these: 24 hours.
T3 sequence (P15170 whole entry): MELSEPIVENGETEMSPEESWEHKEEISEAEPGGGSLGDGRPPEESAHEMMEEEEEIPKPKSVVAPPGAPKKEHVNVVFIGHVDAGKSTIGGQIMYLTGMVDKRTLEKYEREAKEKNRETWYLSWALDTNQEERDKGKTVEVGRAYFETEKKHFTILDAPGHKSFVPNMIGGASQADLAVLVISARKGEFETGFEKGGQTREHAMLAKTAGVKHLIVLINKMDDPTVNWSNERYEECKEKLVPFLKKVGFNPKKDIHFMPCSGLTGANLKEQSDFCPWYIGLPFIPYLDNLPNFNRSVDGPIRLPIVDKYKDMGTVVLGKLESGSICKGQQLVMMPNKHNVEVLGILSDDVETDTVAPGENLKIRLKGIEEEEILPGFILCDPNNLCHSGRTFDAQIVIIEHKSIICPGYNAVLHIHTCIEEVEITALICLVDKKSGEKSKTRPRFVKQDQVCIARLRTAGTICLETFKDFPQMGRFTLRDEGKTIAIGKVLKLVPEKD
T3 sequence (Q96SW2 whole entry): as the sequence (Q96SW2 whole entry) above
T3 sequence (Q16531 whole entry partner): as the sequence (Q16531 whole entry) above
Test [5] deals with T3, GSPT1. Description: Western blot of GSPT1 protein level in leukemia cell lines HL60 and MOLT-4. Format: cell-based. The conditions noted are these: degrader (10 nM CC90009) co-administered with varying concentrations of rapamycin; HL60, MOLT-4; 12 h. As for the experimental part:
as §1
The samples were collected after 12 h, and the protein levels were examined by the same method as in Embodiment 3.

Another test deals with T4, RBM39 (Homo sapiens, UniProt Q14498).
T4 construct: endogenous in cells; host or cells: OPM2 myeloma cell line
T4 sequence (Q14498 1-530): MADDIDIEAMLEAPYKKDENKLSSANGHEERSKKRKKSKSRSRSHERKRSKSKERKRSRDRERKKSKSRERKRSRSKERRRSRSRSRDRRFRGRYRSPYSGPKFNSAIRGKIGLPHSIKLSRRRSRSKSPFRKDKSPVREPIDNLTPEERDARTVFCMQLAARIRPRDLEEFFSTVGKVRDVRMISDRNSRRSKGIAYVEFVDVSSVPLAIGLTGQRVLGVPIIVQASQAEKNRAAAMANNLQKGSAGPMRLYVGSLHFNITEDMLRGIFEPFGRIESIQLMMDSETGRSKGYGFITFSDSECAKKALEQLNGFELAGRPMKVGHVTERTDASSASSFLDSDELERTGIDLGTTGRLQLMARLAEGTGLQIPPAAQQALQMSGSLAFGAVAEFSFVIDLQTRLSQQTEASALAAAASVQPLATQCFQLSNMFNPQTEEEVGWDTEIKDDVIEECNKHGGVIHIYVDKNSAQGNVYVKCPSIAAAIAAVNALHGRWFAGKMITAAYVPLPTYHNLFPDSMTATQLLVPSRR
In words: Western blot of RBM39 protein level in OPM2. Format: cell-based. The conditions noted are these: indisulam 1 μM + rapamycin 20 nM, 24 hours. As for the experimental part:
as §1
Different concentrations of indisulam (0, 0.1, 1 μm) and a fixed concentration of rapamycin (20 nM) were added to the myeloma cell line OPM2. After 24 hours, protein levels were analyzed using the same method as in Embodiment 3.

The test system of a further test is OPM2-P5000. In words: Cell viability of pomalidomide-resistant OPM2-P5000 cells. Format: cell-based, human. The conditions noted are these: CC-92480 3 μM + rapamycin 20 nM, viability at 0, 96, 120 h. As for the experimental part:
as §2, §3
Meanwhile, this embodiment provides the following groups for cell viability test in the pomalidomide-resistant myeloma cell line OPM2-P5000: rapamycin alone (20 nM), pomalidomide alone (3 μM), CC-92480 alone (3 μM), combination treatment, and control. Cell viability was assessed on Oh, 96 h and 120 h post drug treatment using the same method as in Embodiment 1.

For a further test, the target named is T5, Wee1 (Homo sapiens, UniProt P30291).
T5 construct: endogenous in cells; host or cells: OPM2 myeloma cell line
T5 sequence (P30291 whole entry): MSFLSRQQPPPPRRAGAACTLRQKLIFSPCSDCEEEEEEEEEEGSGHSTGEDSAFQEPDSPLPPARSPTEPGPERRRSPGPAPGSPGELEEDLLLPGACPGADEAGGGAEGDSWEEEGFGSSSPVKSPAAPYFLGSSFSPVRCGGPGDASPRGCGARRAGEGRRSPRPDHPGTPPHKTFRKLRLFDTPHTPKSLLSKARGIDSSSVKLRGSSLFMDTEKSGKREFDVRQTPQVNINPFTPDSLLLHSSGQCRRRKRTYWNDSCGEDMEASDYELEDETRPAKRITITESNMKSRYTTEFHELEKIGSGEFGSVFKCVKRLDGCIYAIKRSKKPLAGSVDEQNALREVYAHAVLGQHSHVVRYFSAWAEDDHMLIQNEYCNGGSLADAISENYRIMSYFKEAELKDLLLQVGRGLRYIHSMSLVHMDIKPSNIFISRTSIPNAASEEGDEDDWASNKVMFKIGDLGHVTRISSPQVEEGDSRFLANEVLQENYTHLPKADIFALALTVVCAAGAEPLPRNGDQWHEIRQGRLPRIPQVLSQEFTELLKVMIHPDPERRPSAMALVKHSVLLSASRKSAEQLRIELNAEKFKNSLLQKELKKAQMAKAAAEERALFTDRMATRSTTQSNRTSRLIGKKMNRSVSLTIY
Description: Western blot of Wee1 protein level in OPM2. Type of test: cell-based. Conditions: ZNL-02-096 10 nM + rapamycin 20 nM, 24 hours. On the procedure:
as §1
Different concentrations of ZNL-02-096 (0, 1, 10 nM) and a fixed concentration of rapamycin (20 nM) were added to the myeloma cell line OPM2.

[6] abbreviates: pomalidomide 25 nM + varying concentrations of everolimus, OPM2, 24 hours.

Experimental findings from patent US20260166038A1, “METHOD OF ENHANCING THE EFFICACY OF A TARGETED PROTEIN DEGRADER AND ITS DERIVATIVE THERAPEUTICS” (ShanghaiTech University, priority 2022, published 2026) are described below.

Regarding `Cc1ncsc1-c1ccc([C@H](C)NC(=O)[C@@H]2C[C@@H](O)CN2C(=O)[C@@H](NC(=O)COCCCOCCNC(=O)C[C@@H]2N=C(c3ccc(Cl)cc3)c3c(sc(C)c3C)-n3c(C)nnc32)C(C)(C)C)cc1` [ARV-771], on BRD4, the “degradation of the substrate BRD4, combination with rapamycin vs alone” value is “stronger degradation effect”.
For `Nc1cccc2c1CN(C1CCC(=O)NC1=O)C2=O` (stereo not shown) [lenalidomide], the “cell viability (killing curve) of DEPDC5 knockout cells compared to the control group” value (from here on “cell viability … compared to the control group”) in test [1] is “exhibit resistance”.
Regarding `O=C1CC[C@H](N2Cc3c(OCc4ccc(CN5CCOCC5)cc4)cccc3C2=O)C(=O)N1` [CC-220], the “cell viability … compared to the control group” value in test [1] is on record as “exhibit resistance”.
As for `Nc1cccc2c1C(=O)N(C1CCC(=O)NC1=O)C2=O` (stereo not shown) [pomalidomide], the “killing of myeloma cells, combination with rapamycin vs pomalidomide alone” value in the test with OPM2, with MM1S, with RPMI-8226, in the test on U266 and in the test on H929 was “stronger effect in killing myeloma cells” in each case. Also, the “degradation of IKZF1” value at IKZF1 (25 nM pomalidomide co-administered with rapamycin, OPM2, RPMI-8226, U266, 24 h) is given as “enhances the degradation”. In addition, the “degradation of the substrate IKZF1, combination with everolimus” value at IKZF1 (setting [6]) is “stronger degradation effect”. For the same compound, the “degradation of the substrate IKZF3, co-administration with rapamycin” value on IKZF3 [2] is on record as “enhance the degradation”. For the same compound, the “cell viability … compared to the control group” value in [1] is “exhibit resistance”. Besides, the “level of the substrate IKZF3” value at IKZF3 [3] (25 nM pomalidomide co-administered with varying concentrations of rapamycin, OPM2, RPMI-8226, U266, 24 h) was “significantly reduced”. In addition, the “degradation of the substrate IKZF3, combination with everolimus” value on IKZF3 [3] (setting [6]) is reported as “stronger degradation effect”.
For the compound `Cc1ccc(NC(=O)NCc2ccc3c(c2)CN(C2CCC(=O)NC2=O)C3=O)cc1Cl` (stereo not shown) [CC-885], the “degradation of the substrate GSPT1, combination with everolimus” value on GSPT1 [4] (CC-90009 1 μM or CC-885 0.1 μM + everolimus 0.01, 0.1 μM) was “stronger degradation effect”. Further, the “degradation of the substrate GSPT1, combination with rapamycin” value at GSPT1 [4] (CC-90009 1 μM or CC-885 0.1 μM + rapamycin 0.01, 0.1 μM) is given as “stronger degradation effect”. The “level of substrate protein GSPT1” value at GSPT1 [5] is reported as “significantly reduced”.
For the compound `NS(=O)(=O)c1ccc(S(=O)(=O)Nc2cccc3c(Cl)c[nH]c23)cc1` [indisulam], at RBM39, the “degradation of the substrate RBM39, combination with rapamycin vs alone” value is on record as “stronger degradation effect”.
On to `N#Cc1ccc(N2CCN(Cc3ccc(COc4cccc5c4CN([C@H]4CCC(=O)NC4=O)C5=O)cc3)CC2)c(F)c1` [CC-92480], for which, on IKZF3 [2], the “degradation of the substrate IKZF3, co-administration with rapamycin” value is “enhance the degradation”. In addition, the “killing effect on myeloma cells, co-administered with rapamycin” value in the test with OPM2-P5000 is “stronger killing effect”.
In the case of `Cc1nc2cccc(N)c2c(=O)n1C1CCC(=O)NC1=O` (stereo not shown) [CC-122], the “cell viability … compared to the control group” value in [1] is given as “exhibit resistance”.
Take `C=CCn1c(=O)c2cnc(Nc3ccc(N4CCN(CCCNc5cccc6c5C(=O)N(C5CCC(=O)NC5=O)C6=O)CC4)cc3)nc2n1-c1cccc(C(C)(C)O)n1` (stereo not shown) [ZNL-02-096]: the “degradation of the substrate Wee1, combination with rapamycin vs alone” value on Wee1 was “stronger degradation effect”.
